Reference: patent publication US10988477B2 (Merck Patent GmbH, priority 2018, dated 2021)

Legend:
[1] = target: GCN2 kinase (Homo sapiens, UniProt Q9P2K8); test: GCN2 enzyme inhibition assay (Transcreener ADP2 fluorescence polarization); assay type: biochemical; conditions: Enzyme activity for compounds of Formula IV; Ki(app), 280 μM ATP, 25° C.
Procedure, shortened: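 Inhibition of 4 nM GCN2 was measured with compound up to 8 μM final, ATP 280 μM and (RS)7 peptide 200 μM over a 1 h, 25 °C reaction. ADP FP readout; IC50 and Ki(app) calculated from percent inhibition.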

[2] = target: intracellular GCN2 (phosphorylation of the GCN2 substrate eIF2α) (Homo sapiens, UniProt Q9P2K8); test: GCN2 cellular inhibition assay (AlphaScreen SureFire P-eIF2α Ser51, borrelidin-treated U2OS cells); assay type: cell-based; conditions: compounds of Formula IV; biomarker assay, phosphorylated eIF2α Ser51 in borrelidin-treated U2OS cells
Procedure, shortened: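 U2OS cells, adhered overnight, received compounds in 4-fold serial dilutions from 40 μM final, then 10 μM borrelidin for 1 h at 37 °C. Lysates were read by AlphaScreen for phospho-eIF2α Ser51; percent inhibition was set against borrelidin-only wells.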

Sequence of intracellular GCN2 (phosphorylation of the GCN2 substrate eIF2α) (Q9P2K8 whole entry): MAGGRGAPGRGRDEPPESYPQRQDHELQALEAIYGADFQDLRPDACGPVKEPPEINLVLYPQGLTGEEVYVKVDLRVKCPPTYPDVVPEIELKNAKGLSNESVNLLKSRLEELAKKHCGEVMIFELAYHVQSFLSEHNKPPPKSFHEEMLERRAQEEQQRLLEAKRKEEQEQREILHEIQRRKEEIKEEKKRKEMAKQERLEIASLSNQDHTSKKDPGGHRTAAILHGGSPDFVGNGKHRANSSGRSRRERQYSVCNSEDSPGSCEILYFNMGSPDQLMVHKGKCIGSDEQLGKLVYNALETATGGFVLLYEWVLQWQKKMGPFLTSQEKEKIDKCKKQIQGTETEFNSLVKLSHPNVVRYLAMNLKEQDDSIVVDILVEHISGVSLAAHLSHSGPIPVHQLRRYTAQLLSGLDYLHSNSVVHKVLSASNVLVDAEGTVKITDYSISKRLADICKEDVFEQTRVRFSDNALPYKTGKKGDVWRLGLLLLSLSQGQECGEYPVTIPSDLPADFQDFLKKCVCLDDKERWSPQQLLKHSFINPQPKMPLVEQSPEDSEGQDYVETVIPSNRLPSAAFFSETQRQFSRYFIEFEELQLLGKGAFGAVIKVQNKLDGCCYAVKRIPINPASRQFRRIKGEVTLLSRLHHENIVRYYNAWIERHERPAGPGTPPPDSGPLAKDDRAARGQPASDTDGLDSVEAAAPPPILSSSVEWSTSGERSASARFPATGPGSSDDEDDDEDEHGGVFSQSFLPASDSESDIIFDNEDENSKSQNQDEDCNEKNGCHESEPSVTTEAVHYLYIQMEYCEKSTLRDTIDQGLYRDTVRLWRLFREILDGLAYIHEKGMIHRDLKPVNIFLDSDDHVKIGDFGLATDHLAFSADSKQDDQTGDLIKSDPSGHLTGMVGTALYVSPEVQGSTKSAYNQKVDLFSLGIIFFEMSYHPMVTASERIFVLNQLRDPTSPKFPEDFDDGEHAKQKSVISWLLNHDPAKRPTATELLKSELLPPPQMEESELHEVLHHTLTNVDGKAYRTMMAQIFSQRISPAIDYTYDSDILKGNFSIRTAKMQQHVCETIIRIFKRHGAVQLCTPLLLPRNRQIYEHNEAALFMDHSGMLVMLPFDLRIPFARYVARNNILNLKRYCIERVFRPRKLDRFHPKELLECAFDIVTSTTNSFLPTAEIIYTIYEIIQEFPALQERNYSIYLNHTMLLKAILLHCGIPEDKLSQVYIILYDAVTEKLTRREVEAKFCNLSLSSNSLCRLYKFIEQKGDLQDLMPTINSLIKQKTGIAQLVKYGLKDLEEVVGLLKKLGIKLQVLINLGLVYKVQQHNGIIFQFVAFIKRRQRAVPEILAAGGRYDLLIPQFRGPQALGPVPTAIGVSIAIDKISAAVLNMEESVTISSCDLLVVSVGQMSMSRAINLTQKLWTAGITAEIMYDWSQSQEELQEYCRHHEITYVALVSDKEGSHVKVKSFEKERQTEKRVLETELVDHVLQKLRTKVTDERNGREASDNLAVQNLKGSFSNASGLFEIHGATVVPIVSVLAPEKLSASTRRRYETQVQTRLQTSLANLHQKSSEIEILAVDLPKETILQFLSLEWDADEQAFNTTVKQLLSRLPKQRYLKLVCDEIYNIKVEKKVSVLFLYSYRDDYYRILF
Sequence of GCN2 kinase (Q9P2K8 whole entry): as above

Ki [1]	IC50 [2]	SMILES
100 to 1000 nM	> 5000 nM	C[C@H]1COCCN1c1ccnc(-c2cnc3cnc(C(F)F)cn23)n1 [IV-81, (S)-4-(2-(6-(Difluoromethyl)imidazo[1,2-a]pyrazin-3-yl)pyrimidin-4-yl)-3-methylmorpholine]
100 to 1000 nM	> 5000 nM	N#CCC1CCCN(c2ccnc(-c3cnc4cnc(C(F)F)cn34)n2)C1 (centres unmarked) [IV-82, 2-(1-(2-(6-(Difluoromethyl)imidazo[1,2-a]pyrazin-3-yl)pyrimidin-4-yl)piperidin-3-yl)acetonitrile]
100 to 1000 nM	> 5000 nM	O=c1[nH]nc2n1CCN(c1ccnc(-c3cnc4cnc(C(F)F)cn34)n1)C2 [IV-83, 7-(2-(6-(Difluoromethyl)imidazo[1,2-a]pyrazin-3-yl)pyrimidin-4-yl)-5,6,7,8-tetrahydro-[1,2,4]triazolo[4,3-a]pyrazin-3 (2H)-one]
100 to 1000 nM	> 5000 nM	C[C@H]1CCCCN1c1ccnc(-c2cnc3cnc(C(F)F)cn23)n1 [IV-85, (S)-6-(Difluoromethyl)-3-(4-(2-methylpiperidin-1-yl)pyrimidin-2-yl)imidazo[1,2-a]pyrazine]
100 to 1000 nM	> 5000 nM	O=C1NCCN2CCN(c3ccnc(-c4cnc5cnc(C(F)F)cn45)n3)CC12 (centres unmarked) [IV-86, 8-(2-(6-(Difluoromethyl)imidazo[1,2-a]pyrazin-3-yl)pyrimidin-4-yl)hexahydro-2H-pyrazino[1,2-a]pyrazin-1(6H)-one]
100 to 1000 nM	> 5000 nM	O=C1NCC2(CCCN(c3ccnc(-c4cnc5cnc(C(F)F)cn45)n3)CC2)O1 (centres unmarked) [IV-87, 8-(2-(6-(Difluoromethyl)imidazo[1,2-a]pyrazin-3-yl)pyrimidin-4-yl)-1-oxa-3,8-diazaspiro[4.6]undecan-2-one]
100 to 1000 nM	> 5000 nM	OCC1CCCCN(c2ccnc(-c3cnc4cnc(C(F)F)cn34)n2)C1 (centres unmarked) [IV-88, (1-(2-(6-(Difluoromethyl)imidazo[1,2-a]pyrazin-3-yl)pyrimidin-4-yl)azepan-3-yl)methanol]
100 to 1000 nM	> 5000 nM	CN1CCN(c2ccnc(-c3cnc4cnc(C(F)F)cn34)n2)CC1C(N)=O (centres unmarked) [IV-89, 4-(2-(6-(Difluoromethyl)imidazo[1,2-a]pyrazin-3-yl)pyrimidin-4-yl)-1-methylpiperazine-2-carboxamide]
100 to 1000 nM	> 5000 nM	CC1(O)CCCN(c2ccnc(-c3cnc4cnc(C(F)F)cn34)n2)CC1 (centres unmarked) [IV-90, 1-(2-(6-(Difluoromethyl)imidazo[1,2-a]pyrazin-3-yl)pyrimidin-4-yl)-4-methylazepan-4-ol]
100 to 1000 nM	> 5000 nM	FC(F)c1cn2c(-c3nccc(N4CC5CCC(C4)O5)n3)cnc2cn1 [IV-91, 3-(2-(6-(Difluoromethyl)imidazo[1,2-a]pyrazin-3-yl)pyrimidin-4-yl)-8-oxa-3-azabicyclo[3.2.1]octane]
100 to 1000 nM	> 5000 nM	OCCc1cc(C2CCCN(c3ccnc(-c4cnc5cnc(C(F)F)cn45)n3)C2)n[nH]1 (centres unmarked) [IV-92, 2-(3-(1-(2-(6-(Difluoromethyl)imidazo[1,2-a]pyrazin-3-yl)pyrimidin-4-yl)piperidin-3-yl)-1H-pyrazol-5-yl)ethan-1-ol]
100 to 1000 nM	> 5000 nM	OCc1cc(C2CCCN(c3ccnc(-c4cnc5cnc(C(F)F)cn45)n3)C2)n[nH]1 (centres unmarked) [IV-93, (3-(1-(2-(6-(Difluoromethyl)imidazo[1,2-a]pyrazin-3-yl)pyrimidin-4-yl)piperidin-3-yl)-1H-pyrazol-5-yl)methanol]
100 to 1000 nM	> 5000 nM	NC(=O)c1cc(C2CCCN(c3ccnc(-c4cnc5cnc(C(F)F)cn45)n3)C2)n[nH]1 (centres unmarked) [IV-94, 3-(1-(2-(6-(Difluoromethyl)imidazo[1,2-a]pyrazin-3-yl)pyrimidin-4-yl)piperidin-3-yl)-1H-pyrazole-5-carboxamide]
100 to 1000 nM	> 5000 nM	CNC(=O)c1cc(C2CCCN(c3ccnc(-c4cnc5cnc(C(F)F)cn45)n3)C2)n[nH]1 (centres unmarked) [IV-95, 3-(1-(2-(6-(Difluoromethyl)imidazo[1,2-a]pyrazin-3-yl)pyrimidin-4-yl)piperidin-3-yl)-N-methyl-1H-pyrazole-5-carboxamide]
10 to 100 nM	500 to 5000 nM	Cc1n[nH]cc1C1=CCCN(c2ccnc(-c3cnc4cnc(C(F)F)cn34)n2)C1 [IV-96, 6-(Difluoromethyl)-3-(4-(5-(3-methyl-1H-pyrazol-4-yl)-3,6-dihydropyridin-1 (2H)-yl)pyrimidin-2-yl)imidazo[1,2-a]pyrazine]
10 to 100 nM	> 5000 nM	Cc1n[nH]cc1C1CCCN(c2ccnc(-c3cnc4cnc(C(F)F)cn34)n2)C1 (centres unmarked) [IV-97, 6-(Difluoromethyl)-3-(4-(3-(3-methyl-1H-pyrazol-4-yl)piperidin-1-yl)pyrimidin-2-yl)imidazo[1,2-a]pyrazine]
100 to 1000 nM	> 5000 nM	O=C1CCC2CN(c3ccnc(-c4cnc5cnc(C(F)F)cn45)n3)CCN12 (centres unmarked) [IV-98, 2-(2-(6-(Difluoromethyl)imidazo[1,2-a]pyrazin-3-yl)pyrimidin-4-yl)hexahydropyrrolo[1,2-a]pyrazin-6(2H)-one]
100 to 1000 nM	> 5000 nM	O=C1CCCC2CN(c3ccnc(-c4cnc5cnc(C(F)F)cn45)n3)CCN12 (centres unmarked) [IV-99, 2-(2-(6-(Difluoromethyl)imidazo[1,2-a]pyrazin-3-yl)pyrimidin-4-yl)octahydro-6H-pyrido[1,2-a]pyrazin-6-one]
100 to 1000 nM	> 5000 nM	O=C1OCC2CN(c3ccnc(-c4cnc5cnc(C(F)F)cn45)n3)CCN12 (centres unmarked) [IV-100, 7-(2-(6-(Difluoromethyl)imidazo[1,2-a]pyrazin-3-yl)pyrimidin-4-yl)hexahydro-3H-oxazolo[3,4-a]pyrazin-3-one]
100 to 1000 nM	> 5000 nM	NS(=O)(=O)N1CCCN(c2ccnc(-c3cnc4cnc(C(F)F)cn34)n2)CC1 [IV-101, 4-(2-(6-(Difluoromethyl)imidazo[1,2-a]pyrazin-3-yl)pyrimidin-4-yl)-1,4-diazepane-1-sulfonamide]
100 to 1000 nM	> 5000 nM	FC(F)c1cn2c(-c3nccc(N4CCC(C5CCOCC5)C4)n3)cnc2cn1 (centres unmarked) [IV-102, 6-(Difluoromethyl)-3-(4-(3-(tetrahydro-2H-pyran-4-yl)pyrrolidin-1-yl)pyrimidin-2-yl)imidazo[1,2-a]pyrazine]
100 to 1000 nM	> 5000 nM	FC(F)c1cn2c(-c3nccc(N4CCCCC4)n3)cnc2cn1 [IV-103, 6-(Difluoromethyl)-3-(4-(piperidin-1-yl)pyrimidin-2-yl)imidazo[1,2-a]pyrazine]
100 to 1000 nM	> 5000 nM	FC(F)c1cn2c(-c3nccc(N4CCOCC4)n3)cnc2cn1 [IV-104, 4-(2-(6-(Difluoromethyl)imidazo[1,2-a]pyrazin-3-yl)pyrimidin-4-yl)morpholine]
100 to 1000 nM	> 5000 nM	FC(F)c1cn2c(-c3nccc(N4CCCCCC4)n3)cnc2cn1 [IV-105, 3-(4-(Azepan-1-yl)pyrimidin-2-yl)-6-(difluoromethyl)imidazo[1,2-a]pyrazine]
10 to 100 nM	500 to 5000 nM	CC1CCN(c2ccnc(-c3cnc4cnc(C(F)F)cn34)n2)CC1C(N)=O (centres unmarked) [IV-108, 1-(2-(6-(Difluoromethyl)imidazo[1,2-a]pyrazin-3-yl)pyrimidin-4-yl)-4-methylpiperidine-3-carboxamide]
